In publication PMC8453745, “Human Mass Balance and Metabolite Profiling of [^14C]‐Pamiparib, a Poly (ADP‐Ribose) Polymerase Inhibitor, in Patients With Advanced Cancer” (Clinical Pharmacology in Drug Development, 2021):

Columns and labels:
[1] = test system: BRCA1 mutant mouse xenograft; settings: BRCA1 mutant mouse xenograft model; cited from earlier work
rat bone marrow = test system: rat bone marrow; parameters: method as in data on file; settings: in vivo rat bone marrow micronucleus assay; ref data on file; cited from earlier work
CYP2C8 = biological target: T1, CYP2C8 (Homo sapiens, UniProt P10632); test: CYP450 phenotyping in HLMs with CYP2C8 inhibitor montelukast; format: in vitro ADME; settings: 90‐minute HLM incubation with CYP2C8 inhibitor montelukast (16 μM)
T1 construct: tissue Corning (Woburn, New York); host or cells: pooled human liver microsomes
T1 sequence (P10632 1-490): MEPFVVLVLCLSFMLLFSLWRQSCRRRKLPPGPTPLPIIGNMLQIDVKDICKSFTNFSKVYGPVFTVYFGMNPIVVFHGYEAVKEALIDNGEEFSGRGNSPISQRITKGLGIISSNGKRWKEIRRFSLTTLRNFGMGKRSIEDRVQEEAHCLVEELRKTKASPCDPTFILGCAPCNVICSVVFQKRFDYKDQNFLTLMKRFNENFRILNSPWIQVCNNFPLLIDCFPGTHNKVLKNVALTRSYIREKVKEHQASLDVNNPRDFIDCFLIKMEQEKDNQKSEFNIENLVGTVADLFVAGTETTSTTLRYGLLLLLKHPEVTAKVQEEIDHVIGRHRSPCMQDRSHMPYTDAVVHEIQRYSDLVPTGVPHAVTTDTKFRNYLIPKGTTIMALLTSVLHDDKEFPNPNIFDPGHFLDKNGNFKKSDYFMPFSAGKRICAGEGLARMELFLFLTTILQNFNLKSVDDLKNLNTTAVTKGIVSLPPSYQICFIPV
Description: Metabolic stability in human liver microsomes (HLMs) and cytochrome P450 (CYP450) phenotyping assays were conducted in 3D BioOptima (Suzhou, China) using validated methodology, [13] to determine the intrinsic clearance and enzymes responsible for metabolism of pamiparib. HLMs for microsome stability was from BD Biosciences (Woburn, New York). For phenotyping, HLMs and recombinant P450 (rCYP) were from Corning (Woburn, New York). Pamiparib (1 μM) was incubated with pooled HLM (0.5 mg/mL), NADPH (1 mM), and MgCl2 (3 mM) terminated at 0, 5, 15, 30, 60, and 90 minutes. The intrinsic clearance was calculated as 0.693/(t1/2 × HLM concentration), where t1/2 is the half‐life of pamiparib determined in HLMs. For phenotyping in HLMs, pamiparib (1 μM) was incubated in the absence or presence of isoform‐selective inhibitors: 0.2 μM α‐naphthoflavone for CYP1A2, 2 μM clopidogrel for CYP2B6, 16 μM montelukast for CYP2C8, 10 μM sulfaphenazole for CYP2C9, 30 μM nootkatone for CYP2C19, 2 μM quinidine for CYP2D6, and 1 μM ketoconazole for CYP3A. The following isoform‐selective probe substrates served as positive controls: 40 μM phenacetin for CYP1A2, 100 μM bupropion for CYP2B6, 2 μM amodiaquine for CYP2C8, 5 μM diclofenac for CYP2C9, 40 μM S‐mephenytoin for CYP2C19, 5 μM dextromethorphan for CYP2D6, and 2 μM midazolam for CYP3A4. […] Pamiparib, M1, and M2 were analyzed by LC‐MS/MS.

[2] = metabolite profiling in pooled feces (radioprofiling, LC‐MS); format: in vivo, human; settings: pooled feces
Description: Total radioactivity concentrations of [^14C]‐pamiparib in whole blood, plasma, urine, and feces were determined by liquid scintillation counting (LSC). Radioactivity in each sample was measured for 5 minutes using a Packard Tri‐Carb liquid scintillation counter model 2100TR, 2900TR, or 3100TR (Canberra Packard, Pangbourne, Berks, Australia) with the facilities for computing quench‐corrected disintegrations per minute. Metabolite identification in plasma, urine, and feces was conducted by LC‐MS. Quantitation of the metabolites present in plasma, urine, and feces was based on the profiles of radioactivity. The limit of quantitation for radioactivity in plasma, urine, and feces was set at 1% of each chromatographic analysis (run) and 10 counts per minute (cpm) peak height; therefore, radioactive peaks that were <1% of the total run or <10 cpm peak height were reported as not detected. In addition, pamiparib and standards were reported, regardless of the percentage of run or peak height.
Portions of fecal homogenates (about 200‐500 mg) were subjected to combustion analysis prior to LSC. For metabolite profiling, feces samples collected 0‐24, 24‐48, 48‐72, 72‐96, and 96‐120 hours postdose were pooled by individual patient to generate 0‐ to 120‐hour pooled samples including 0.5% of each sample by weight. Feces were pooled per patient (if required) according to the appropriate 24‐hour collection period. The samples were homogenized in deionized water, avoiding excessive dilution (data on file). The radioactivity in each pooled sample was determined by LSC. The total amount of feces collected was factored into the recovery calculation. Approximately 1.6 to 2.7 g of each pooled feces sample was extracted twice with 6 mL of 0.1% formic acid in ACN. […] The combined supernatants were evaporated to dryness under nitrogen and reconstituted in 300 μL of MeOH. […] The reconstituted samples were analyzed by LC‐MS, with eluent fractions collected, and radiochemical profiles were generated based on radioactivity counts. […]

For `C[C@]12CCCN1CC1=NNC(=O)c3cc(F)cc4[nH]c2c1c34` [Pamiparib], which antitumor activity [1] is on record?
Its antitumor activity is “strong antitumor activity”.

What about the “potency compared with olaparib” value [1] of the same molecule?
The value was “more potent than olaparib”.

And the clastogenic activity (rat bone marrow)?
The clastogenic activity was “clastogenic activity”.

What about the pamiparib remaining (CYP2C8) of the same molecule?
The pamiparib remaining was 82.9%.

And the “dose quantified in feces” value [2]?
The value was 17.5 % of the dose.
